Data: patent publication US9464112B2, “Peptides having NF-κB inhibitory activity, or composition comprising same” (KNU-INDUSTRY COOPERATION FOUNDATION, priority 2012, dated 2016)

Legend:
Type in all cases: cell-based
TNF-α = TNF-α expression in UVB-irradiated human keratinocytes HaCaT (Western blotting); conditions: UVB 312 nm 12.5 mJ/cm^2, 48 hours, peptide 0.1˜2 μM, dose-dependent
Description: (§1) We evaluated the inhibitory activities of the peptide of the present invention on expressions of the representative pro-inflammatory factors, i.e., TNF-α and IL-1α, the expressions of which are induced by ultraviolet stimulation. Specifically, the HaCaT cells (Molecular Biology Engineering Lab, Chemical & Biochemical Engineering, Dongguk University) were irradiated with UVB (312 nm, 12.5 mJ/cm^2) and then treated with the peptide of SEQ ID NO: 1 in the concentrations of 0.1˜2 μM. At this time, the control group was treated with dexamethasone (Dex) having the immunosuppressive function, at the irradiation of UVB. After 48 hours, the cell extracts were subject to the Western blotting assay so as to measure the expressions of TNF-α and IL-1α.

MMP-1 = MMP-1 expression in UVB-irradiated human dermal fibroblasts (Western blotting); conditions: peptide 0.1˜2 μM, UVB 312 nm 12.5 mJ/cm^2, 48 hours, dose-dependent
Text: (§2) It is known that MMP-1, the expression of which is induced by ultraviolet stimulation in human dermal fibroblasts, degrades collagen fibers to facilitate cutaneous photoaging as well as wrinkle formation. Since the expression of MMP-1 is induced by NF-κB activation, we evaluate the inhibition thereof by the treatment of the peptides of the present invention, using human dermal fibroblasts (ATCC PCS-201-012, USA).
(§3) The human dermal fibroblasts was irradiated with UVB (312 nm, 12.5 mJ/cm^2) and then treated with the peptide of SEQ ID NO: 1 in the concentrations of 0.1˜2 μM. After 48 hours, the cell extracts were subject to the Western blotting assay so as to measure the expressions of MMP-1 and procollagen type-1. […] Therefore, it can be seen that the peptide of the present invention can inhibit ultraviolet radiation-induced cutaneous photoaging.

PGE2 = PGE2 formation in UVB-irradiated human keratinocytes HaCaT (enzyme immunoassay); conditions: peptide 0.1˜2 μM, dose-dependent
Description: as §1
(§4) And also, the cell extracts were subject to the enzyme immunoassay so as to evaluate the inhibitory effects on formation of PGE2 (one of pro-inflammatory factors). For this assay, we also used the group treated with dexamethasone at the irradiation of UVB as a control group. In addition, the expression of COX-2 (which is a PGE2 formation-mediating enzyme) was measured through the Western blotting assay; and the results thereof are shown in FIG. 8.

IL-1α = IL-1α expression in UVB-irradiated human keratinocytes HaCaT (Western blotting); conditions: UVB 312 nm 12.5 mJ/cm^2, 48 hours, peptide 0.1˜2 μM, dose-dependent
Description: as §1

procollagen type-1 = experiment: Procollagen type-1 expression in UVB-irradiated human dermal fibroblasts (Western blotting); conditions: peptide 0.1˜2 μM, UVB 312 nm 12.5 mJ/cm^2, 48 hours, dose-dependent
Text: as §2, §3

COX-2 = COX-2 expression in UVB-irradiated human keratinocytes HaCaT (Western blotting); conditions: peptide 0.1˜2 μM, dose-dependent
Description: as §1, §4

- PGE2 formation increased by ultraviolet stimulation (PGE2): reduced
Substance: Arg-Phe-Arg (RFR; Peptide fragment) [SEQ ID NO: 1, peptide fragment derived from the NF-κB p65 subunit]
- expression of TNF-α (TNF-α): reduced
- expression of MMP-1 increased by ultraviolet stimulation (MMP-1): reduced
- expression of IL-1α (IL-1α): reduced
- expression of procollagen type-1 (procollagen type-1): increased
- expression of COX-2 (COX-2): reduced
